Patent US12564595B2, “Prophylactic and therapeutic pharmaceutical agent for HIV infectious diseases characterized by comprising combination of integrase inhibitor and anti-HIV agent” (Shionogi & Co., Ltd., priority 2019, dated 2026)

Key:
[1] = tested on: HIV; assay: microbe, parasite or virus in culture; type: cell-based; conditions: Human immunodeficiency virus 1, MT4, 96 h, read-out: EC50 (50% HIV inhibition concentration), MT-4 cells, HIV, cultured four days, MTT; compounds of formula (I) of (A)
Procedure: A serial dilution series of test samples was prepared in 96-well microplates (50 μL/well).
100 μL/well in each case were dispensed onto plates having test samples of 2.5×10^5/mL MT-4 cell suspension, and HIV virus solution was then dispensed thereto in the amount of 50 μL/well. Mixing was performed using a plate mixer and culturing was performed for four days in a CO2 incubator. MTT (3-(4,5-dimethylthiazol-2-yl)-2,5-diphenyltetrazolium bromide) liquid was dispensed into each well in the amount of 30 μL in each case. The reaction was conducted for 1 h in a CO2 incubator. 150 μL of supernatant were removed from each well, taking care not to aspirate any cells. 150 μL of cell solution were added, and thorough mixing was performed with a plate mixer until all the cells had been dissolved. The optical absorbance of the mixed plates was measured at two wavelengths: 560 nm/690 nm, with a microplate reader.

[2] = tested on: HIV mutant strain 1 (E138K/G140S/Q148H/N155H); assay: Test Example 2: resistance evaluation test (HeLa-CD4 reporter), mutant strain 1; type: cell-based; conditions: FC=EC50 of mutant strain/EC50 of wild strain; HeLa-CD4 cells
How it was run: (§1)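 HeLa-CD4 reporter cells were infected with wild-type or mutant HIV in the presence of serially diluted compound and cultured 3 days. Cell lysates were read by chemiluminescent reporter assay after about 1 h at room temperature. Fold change was calculated as mutant EC50 divided by wild-type EC50.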

[3] = tested on: HIV mutant strain 2 (E92Q/E138T/G140S/Q148H); assay: Test Example 2: resistance evaluation test (HeLa-CD4 reporter), mutant strain 2; type: cell-based; conditions: FC=EC50 of mutant strain/EC50 of wild strain; HeLa-CD4 cells
How it was run: as §1

[4] = Test Example 8: metabolic stability test; type: in vitro ADME, human
How it was run: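 Pooled human liver microsomes (0.5 mg protein/mL, Tris-HCl pH 7.4) incubated with compound and 1 mmol/L NADPH for 0 or 30 min at 37° C. After methanol/acetonitrile quench, remaining parent was quantified by LC/MS/MS or SPE/MS and expressed as % of the 0 min amount.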

[5] = target: T1, voltage-gated sodium channel (Nav 1.5 channel) (Homo sapiens, UniProt Q14524); assay: Test Example 14: Nav test (patch clamp, HEK cells); type: cell-based; conditions: HEK cells expressing Nav 1.5 channel, whole cell patch clamp
T1 construct: expressed in transfected cells; host or cells: HEK cells
Procedure: Using a fully automatic patch clamp system (QPatch: Sophion Bioscience A/S), by the whole cell patch clamp method, the cells were maintained at a membrane potential of −100 mV and the induced INa when a −10 mV depolarization stimulus was applied for 20 msec was recorded. […] From the INa obtained, using analysis software (QPatch: Sophion Bioscience A/S), the absolute value of the maximum peak current was measured, with reference to the current value at the maintained membrane potential.

[6] = tested on: HIV; assay: Test Example 3: test for confirmation of combined use effect; type: cell-based; parameters: key to D value (dosewise additivity value): <-0.1 synergy, -0.1 to 0.1 additive, >0.1 antagonism
Source text: The two compounds in respect of which the effect of combined use was desired to be examined were mixed in various ratios, and the anti-HIV activity (50% HIV inhibiting concentration) for each combination was found by the method of test example 1. […] A brief description of the method of calculating the D value is given below.
The D value that is found by evaluating the anti-HIV activity of respective combinations of M concentrations of compound X1 and N concentrations of compound X2 is calculated by the following mathematical expression 1.
The effect of combined use was evaluated in terms of the D value in accordance with the following criteria • −0.5 to −0.2: strong synergetic effect • −0.2 to −0.1: weak synergetic effect • […]: additive synergetic effect • 0.1 to 0.2: weak antagonism • 0.2 to 0.5: strong antagonism

[7] = tested on: HIV; assay: Test Example 16: anti-HIV activity in the presence of human serum protein (MT-4 cells); type: cell-based; conditions: 100% extrapolation value, PS=4×(EC50 with 25% human serum protein/EC50 with no human serum protein)
Procedure: A stage dilution series of the test samples was created on a 96-well microplate (50 μL/well).
Aliquots of human serum protein solution (human serum protein concentration 50%) were dispensed in the amount of 100 μL/well to a 96-well microplate containing the test sample. This was then left to stand for 1 h at room temperature. Culture medium in the amount of 100 μL/well in each case was dispensed to a serum-free plate for control purposes. Aliquots of MT-4 cells in the amount of 3.0×10^5/well and HIV virus liquid in the amount of 3 μL/well were mixed for the necessary number of wells and reacted for 1 h at 37° C. After the reaction, the cell suspension was centrifuged and the supernatant discarded; aliquots of infected cells were distributed to culture medium in the amount of 50 μL/well and were dispensed in the amount of 50 μL/well in each case into the wells of a 96-well microplate containing test samples and human serum protein (human serum protein concentration: 25%). Mixing was performed using a plate mixer and culturing was performed for four days with a CO2 incubator. […] MTT(3-(4, 5-dimethylthiazol-2-yl)-2, 5-diphenyltetrazolium bromide) liquid in the amount of 30 μL was dispensed to each of the wells. The reaction was performed for 1 h in a CO2 incubator. 150 μL supernatant was removed to avoid aspirating cells from the wells. 150 μL of cell solution was added and thorough mixing was performed, using a plate mixer, until all the cells were dissolved. The optical absorbance on the mixed plate was measured at two wavelengths, namely, 560 nm/690 nm, using a microplate reader.
Next, the potency shift (PS) was calculated, using the following formula. The PS is the value of the human serum protein concentration, extrapolated to 100%.

[8] = pooled human liver microsomes, 30 min at 37° C., NADPH, compound concentration 0.5 μmol/L
[9] = combination with compound (B) Compound C (CAI)
[10] = combination with compound (B) Darunavin (PI)
[11] = combination with compound (B) Darunavir (PI)
[12] = combination with compound (B) GS-6207 (CAI)
[13] = combination with compound (B) GSK2838232 (maturation inhibitor)
[14] = combination with compound (B) Lilpiperine (polymerase inhibitor)
[15] = combination with compound (B) Ramipzin (3TC) (polymerase inhibitor)
[16] = combination with compound (B) Rilpivirine (polymerase inhibitor)

T1 sequence (Q14524 whole entry): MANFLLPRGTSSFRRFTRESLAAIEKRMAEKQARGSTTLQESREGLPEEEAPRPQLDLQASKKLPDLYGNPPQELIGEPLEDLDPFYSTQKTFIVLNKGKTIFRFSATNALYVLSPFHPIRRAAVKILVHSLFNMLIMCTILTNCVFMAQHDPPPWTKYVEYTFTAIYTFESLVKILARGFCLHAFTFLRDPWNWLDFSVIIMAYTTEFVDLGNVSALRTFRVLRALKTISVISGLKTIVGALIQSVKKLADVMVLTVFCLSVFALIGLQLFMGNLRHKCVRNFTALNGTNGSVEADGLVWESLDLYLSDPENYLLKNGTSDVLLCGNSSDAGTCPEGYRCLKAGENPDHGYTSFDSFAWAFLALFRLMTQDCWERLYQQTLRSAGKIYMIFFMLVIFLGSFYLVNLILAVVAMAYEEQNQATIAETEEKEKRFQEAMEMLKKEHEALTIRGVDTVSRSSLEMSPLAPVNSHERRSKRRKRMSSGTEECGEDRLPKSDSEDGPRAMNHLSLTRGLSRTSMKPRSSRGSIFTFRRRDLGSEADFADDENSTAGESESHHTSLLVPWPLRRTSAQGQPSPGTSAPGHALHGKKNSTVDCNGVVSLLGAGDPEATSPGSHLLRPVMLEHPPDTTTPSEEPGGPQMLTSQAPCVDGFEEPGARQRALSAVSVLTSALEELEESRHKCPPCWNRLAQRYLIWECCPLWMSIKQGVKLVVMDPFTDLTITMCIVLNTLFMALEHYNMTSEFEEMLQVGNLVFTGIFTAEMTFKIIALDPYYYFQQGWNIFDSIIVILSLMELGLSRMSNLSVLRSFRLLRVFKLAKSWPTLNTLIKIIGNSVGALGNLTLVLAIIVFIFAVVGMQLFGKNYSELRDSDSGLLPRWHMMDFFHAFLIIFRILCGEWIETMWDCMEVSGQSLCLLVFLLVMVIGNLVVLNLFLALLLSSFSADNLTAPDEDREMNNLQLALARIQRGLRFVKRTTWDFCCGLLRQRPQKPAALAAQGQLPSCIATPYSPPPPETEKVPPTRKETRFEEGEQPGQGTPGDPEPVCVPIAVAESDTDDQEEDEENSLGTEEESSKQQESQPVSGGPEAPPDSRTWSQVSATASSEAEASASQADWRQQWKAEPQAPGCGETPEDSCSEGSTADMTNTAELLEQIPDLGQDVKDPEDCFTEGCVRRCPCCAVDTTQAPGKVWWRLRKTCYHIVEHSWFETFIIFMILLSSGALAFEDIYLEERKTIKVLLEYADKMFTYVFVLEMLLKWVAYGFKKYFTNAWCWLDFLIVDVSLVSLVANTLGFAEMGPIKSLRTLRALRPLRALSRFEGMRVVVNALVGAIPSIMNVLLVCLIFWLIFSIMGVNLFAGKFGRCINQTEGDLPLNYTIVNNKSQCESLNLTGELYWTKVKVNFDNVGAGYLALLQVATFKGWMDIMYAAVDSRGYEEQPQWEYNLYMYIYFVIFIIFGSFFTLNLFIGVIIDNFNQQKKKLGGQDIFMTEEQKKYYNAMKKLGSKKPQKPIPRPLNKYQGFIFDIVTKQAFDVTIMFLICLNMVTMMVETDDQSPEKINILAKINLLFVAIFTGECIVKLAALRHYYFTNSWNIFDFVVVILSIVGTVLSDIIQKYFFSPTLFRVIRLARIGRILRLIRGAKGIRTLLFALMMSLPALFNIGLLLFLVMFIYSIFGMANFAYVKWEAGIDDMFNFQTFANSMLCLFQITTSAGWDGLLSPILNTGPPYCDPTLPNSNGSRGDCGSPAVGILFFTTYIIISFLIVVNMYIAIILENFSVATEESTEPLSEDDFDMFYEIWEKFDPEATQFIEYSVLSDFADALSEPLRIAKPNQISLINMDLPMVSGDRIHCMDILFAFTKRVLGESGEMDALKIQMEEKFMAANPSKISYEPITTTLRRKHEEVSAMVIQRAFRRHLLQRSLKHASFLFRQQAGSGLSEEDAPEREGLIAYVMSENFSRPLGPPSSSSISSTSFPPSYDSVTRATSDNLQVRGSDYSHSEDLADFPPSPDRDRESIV

SMILES: CCN1C(=O)c2c(O)c(=O)c(-c3nnc(Cc4ccc(F)cc4)s3)cn2N2[C@H](COC)CC[C@@H]12 [II-118]
- EC50 [1]: 960 pM
- FC in respect of mutant strain 1 (E138K/G140S/Q148H/N155H) [2]: 20
- FC in respect of mutant strain 2 (E92Q/E138T/G140S/Q148H) [3]: 31
- Remaining percentage [4, 8]: 92.4%
- ratio of maximum peak current (INa) on application of compound to that on application of medium [5]: 86.2%

SMILES: CCN1C(=O)c2c(O)c(=O)c(-c3nnc(Cc4ccc(F)cc4F)s3)cn2N2[C@H](COC)CC[C@@H]12 [II-110]
- EC50 [1]: 130 pM
- FC in respect of mutant strain 1 (E138K/G140S/Q148H/N155H) [2]: 8.2
- FC in respect of mutant strain 2 (E92Q/E138T/G140S/Q148H) [3]: 11
- D value (dosewise additivity value) [6, 9]: 0.075
- effect of combined use [6, 9]: Additive (−0.1 to −0.1: additive synergetic effect)
- D value (dosewise additivity value) [6, 10]: −0.058
- effect of combined use [6, 11]: Additive (−0.1 to −0.1: additive synergetic effect)
- D value (dosewise additivity value) [6, 12]: 0.025
- effect of combined use [6, 12]: Additive (−0.1 to −0.1: additive synergetic effect)
- D value (dosewise additivity value) [6, 13]: −0.048
- effect of combined use [6, 13]: Additive (−0.1 to −0.1: additive synergetic effect)
- effect of combined use [6, 14]: Additive (−0.1 to −0.1: additive synergetic effect)
- D value (dosewise additivity value) [6, 15]: −0.145
- effect of combined use [6, 15]: Weak synergy (−0.2 to −0.1: weak synergetic effect)
- D value (dosewise additivity value) [6, 16]: −0.073
- Remaining percentage [4, 8]: 96.5%
- ratio of maximum peak current (INa) on application of compound to that on application of medium [5]: 89.3%

SMILES: CCN1C(=O)c2c(O)c(=O)c(-c3nnc(Cc4c(F)cc(F)cc4F)s3)cn2N2[C@H](COC)CC[C@@H]12 [II-117]
- EC50 [1]: 620 pM
- FC in respect of mutant strain 1 (E138K/G140S/Q148H/N155H) [2]: 10
- FC in respect of mutant strain 2 (E92Q/E138T/G140S/Q148H) [3]: 11
- Remaining percentage [4, 8]: 93.4%
- ratio of maximum peak current (INa) on application of compound to that on application of medium [5]: 88.8%

SMILES: CCN1C(=O)c2c(O)c(=O)c(-c3nnc(Cc4cc(F)c(F)cc4F)s3)cn2N2CCCC[C@@H]12 [Compound I-022]
- EC50 [1]: 4800 pM
- FC in respect of mutant strain 1 (E138K/G140S/Q148H/N155H) [2]: 23
- FC in respect of mutant strain 2 (E92Q/E138T/G140S/Q148H) [3]: 46
- Remaining percentage [4, 8]: 72.2%
- ratio of maximum peak current (INa) on application of compound to that on application of medium [5]: 97.1%

SMILES: C[C@H]1CC[C@H]2N(C)C(=O)c3c(O)c(=O)c(-c4nnc(Cc5ccc(F)cc5F)s4)cn3N2C1 [II-120]
- EC50 [1]: 250 pM
- FC in respect of mutant strain 1 (E138K/G140S/Q148H/N155H) [2]: 5.8
- FC in respect of mutant strain 2 (E92Q/E138T/G140S/Q148H) [3]: 8
- Remaining percentage [4, 8]: 95.5%
- ratio of maximum peak current (INa) on application of compound to that on application of medium [5]: 78.8%

SMILES: CN1C(=O)c2c(O)c(=O)c(-c3nnc(Cc4ccc(F)cc4F)s3)cn2N2CCCC[C@@H]12 [II-098]
- EC50 [1]: 620 pM
- FC in respect of mutant strain 1 (E138K/G140S/Q148H/N155H) [2]: 8.8
- FC in respect of mutant strain 2 (E92Q/E138T/G140S/Q148H) [3]: 12
- Remaining percentage [4, 8]: 109%
- ratio of maximum peak current (INa) on application of compound to that on application of medium [5]: 96.7%

SMILES: CCN1C(=O)c2c(O)c(=O)c(C(=O)NCc3ccc(F)cc3F)cn2N2C[C@@H](C)C[C@@H]12 [II-045]
- FC in respect of mutant strain 1 (E138K/G140S/Q148H/N155H) [2]: 19
- FC in respect of mutant strain 2 (E92Q/E138T/G140S/Q148H) [3]: 21
- Remaining percentage [4, 8]: 96%
- potency shift (PS) in the presence of human serum protein [7]: 236

SMILES: CCN1C(=O)c2c(O)c(=O)c(C(=O)NCc3cccc(Cl)c3F)cn2N2[C@H]3COCC3C[C@@H]12 (stereo partly drawn) [II-052]
- EC50 [1]: 270 pM
- FC in respect of mutant strain 1 (E138K/G140S/Q148H/N155H) [2]: 22
- FC in respect of mutant strain 2 (E92Q/E138T/G140S/Q148H) [3]: 16
- D value (dosewise additivity value) [6, 9]: 0.038
- effect of combined use [6, 9]: Additive (−0.1 to −0.1: additive synergetic effect)
- D value (dosewise additivity value) [6, 10]: −0.076
- effect of combined use [6, 11]: Additive (−0.1 to −0.1: additive synergetic effect)
- D value (dosewise additivity value) [6, 12]: −0.003
- effect of combined use [6, 12]: Additive (−0.1 to −0.1: additive synergetic effect)
- D value (dosewise additivity value) [6, 13]: −0.009
- effect of combined use [6, 13]: Additive (−0.1 to −0.1: additive synergetic effect)
- effect of combined use [6, 14]: Additive (−0.1 to −0.1: additive synergetic effect)
- D value (dosewise additivity value) [6, 15]: −0.156
- effect of combined use [6, 15]: Weak synergy (−0.2 to −0.1: weak synergetic effect)
- D value (dosewise additivity value) [6, 16]: −0.020
- Remaining percentage ([4]; human, microsomes, 0.5 h, 0.5 μmol/L, pH 7.4): 61.6%

SMILES: CCN1C(=O)c2c(O)c(=O)c(-c3nnc(Cc4c(F)cc(F)cc4F)s3)cn2N2CCOC[C@@H]12 [II-106]
- EC50 [1]: 520 pM
- FC in respect of mutant strain 1 (E138K/G140S/Q148H/N155H) [2]: 15
- FC in respect of mutant strain 2 (E92Q/E138T/G140S/Q148H) [3]: 20
- Remaining percentage [4, 8]: 95.3%
- ratio of maximum peak current (INa) on application of compound to that on application of medium [5]: 109%

SMILES: CCN1C(=O)c2c(O)c(=O)c(-c3nnc(Cc4c(F)cc(F)cc4F)s3)cn2N2CC[C@H](C)C[C@@H]12 [II-147]
- EC50 [1]: 1800 pM
- FC in respect of mutant strain 1 (E138K/G140S/Q148H/N155H) [2]: 5.1
- FC in respect of mutant strain 2 (E92Q/E138T/G140S/Q148H) [3]: 7.3
- Remaining percentage [4, 8]: 91.5%

SMILES: CCN1C(=O)c2c(O)c(=O)c(-c3nnc(Cc4ccc(F)cc4F)s3)cn2N2C[C@@H]3CC[C@@H](C3)[C@@H]12 [II-130]
- EC50 [1]: 660 pM
- FC in respect of mutant strain 1 (E138K/G140S/Q148H/N155H) [2]: 2.5
- FC in respect of mutant strain 2 (E92Q/E138T/G140S/Q148H) [3]: 3.9
- Remaining percentage [4, 8]: 92.9%
